The record followed here is US11801210B2, “Retinol replacement in skin treatment” (SYMRISE AG, priority 2018, dated 2023).

In data set [1] the test system is three-dimensional (3D) epidermis model (keratinocytes). Kind of data set: 3D epidermis model, thickness of the epidermis (H&E and Ki67 stained sections). Format: cell-based. The conditions noted are these: 0.01 μM; for Thickness (whole) / Thickness (without stratum corneum): epidermis in stained sections. The protocol: With such 3D assays significant information is obtained about the complex stratification and terminal differentiation process of keratinocytes in a multilayered epidermal tissue with barrier functionality.
Furthermore, paraffin sectioning and a H&E and Ki67 staining was performed. The thickness of the epidermis in the stained sections was measured and compared between MDI 101, all-trans Retinol, all in a concentration of 0.01 μM and the DMSO control (FIG. 1).

A short description of data set [2]: ABTS+ assay, anti-oxidative capacity. Format: biochemical. The note with it: 10 min at 30° C., 734 nm. The method, then:
For the determination of the anti-oxidative capacity, the ABTS+-Assay was performed. The assay principle bases on the reduction and the involved decolourization of the green coloured cationic radical 2,2′-Azinobis(3-ethylbenzothiazoline 6-sulfonic acid) (ABTS+) by antioxidants. The decolourization can be measured spectrophotometrically at 734 nm.
The determination of the anti-oxidative capacity is performed in 96-well microplates from Nunc (Wiesbaden, Germany) and with the microplate reader “Spark” from Tecan (Crailsheim, Germany).
Samples were incubated for 10 min at 30° C. with the 2,2′-Azinobis-(3-ethylbenzothiazoline-6-sulfonate (ABTS+) radical cation (Sigma, St. Louis, USA) prepared by reaction of ABTS+ with potassium persulfate. As a positive control Trolox is always co-tested. The degree of decolourization was determined spectrophotometrically at 734 nm by […]. Results are mean values from 2 independent experiments with quadruple determinations each.
The antioxidative capacity is expressed in IC50 values (concentration that scavenges 50% of the cationic radical relative to the untreated ABTS+ solution), which can be determined by a trend calculation.

Another data set has as its system cells (proliferation). Kind of data set: CyQUANT Direct Cell Proliferation Assay. It counts as cell-based. The conditions noted are these: 0.00005 mM; 72 hours; media with 6% FBS. The method, then:
To evaluate the pro-proliferative activity of MDI 101, the CyQUANT® Direct Cell Proliferation Assay was performed. The CyQUANT® Direct assay is based on a cell-permeant DNA-binding dye in combination with a background suppression reagent. As DNA content is highly regulated, cell number estimates are very accurate. The masking dye blocks staining of dead cells and cells with compromised cell membranes, causing only staining of healthy cells. Therefore, the CyQUANT® Direct assay measures proliferation as well as cytotoxicity. The fluorescence can be measured spectrophotometrically from bottom of well with standard green filter sets or wavelengths (EX/EM 508/527 nm).
The proliferation capacity is performed in black 96-well microplates from Corning (Germany) and with the microplate reader “Spark” from Tecan (Crailsheim, Germany).
Cells are seeded in a black 96 well microplate with transparent bottom and incubated at 37° C. and 5% CO2. After 24 hours the supernatant is decanted and the samples are added in fresh media with 6% FBS. As a positive control KGF is always co-tested. […] Then the CyQUANT® Direct assay is performed and the fluorescence is measured from bottom of well at EX/EM 508/527 nm.
The proliferation probability is expressed in percent, which can be determined by rule of proportion in combination with the control.

Data set [3] concerns intracellular radicals (reactive oxygen species, ROS) in cells. Kind of data set: Dichlorofluorescein (DCF) assay, oxidative stress. Format: cell-based. The note with it: for ROS mean value / ROS reduction: 24 h incubation, relative to control. The protocol: For the quantification of intracellular radicals, the dichlorofluorescein (DCF) assay was performed. […] By intracellular esterases and oxidation, the nonfluorescent H2DCFDA is converted to the highly fluorescent 2′,7′-dichlorofluorescein (DCF). The nonfluorescent fluorescin (2′,7′-dichlorofluorescein diacetate (DCFH-DA) pass the cell membranes. In the cytoplasm, it is splitted by intracellular esterases and cannot leave out of the cell in this form. The oxidation by intracellularly existing ROS (reactive oxygen species) modifies the molecule so that will become DCF and emit fluorescence.
Determination of the anti-oxidative capacity is performed in 96-well microplates from Nunc (Wiesbaden, Germany) and with the microplate reader “Spark” from Tecan (Crailsheim, Germany).
Cells are seeded in a black 96 well microplate with transparent bottom and incubated at 37° C. After 24 hours the supernatant is decanted and fresh media with 0.1% FBS is succeded. Further 24 hours later the supernatant is decanted again and the test samples are added and incubated for 24 hours. Varying concentrations of MDI 101 in the cell culture medium were tested. As a positive control Trolox is always co-tested. Then the DCF Assay is performed and the fluorescence is measured from bottom of well at EX/EM 485/528 nm. The antioxidative capacity is expressed in percent, which can be determined by rule of proportion in combination with the control.

Data set [4] in a line: Solubility and recrystallization in o/w emulsions (microscopy, polarized light). It counts as physicochemical. The method, then:
Two pre-blends, A1 and A2, both containing 2.5 w/w % of Hydroxypinacolone Retinoate (MDI 101) were produced according to the above recipe. Three o/w emulsions (A, B and C) according to the following recipe were prepared: Heat Phases A and C separately up to 80° C. Disperse Phase B in A. Add Phase C to AB and emulsify by using an Ultra Turrax Stirrer (3 min, 6000 rpm). Add Phase D and neutralize. Allow to cool by using a vane stirrer. The emulsions were equal, except for the addition of MDI 101. […] As the pre-blends contain 2.5 wt.-% MDI 101, the final concentration of MDI 101 in the emulsions A, B and C was 0.05 wt.-% in all emulsions.

Data set [5] concerns 3T3 swiss albino mouse fibroblasts. Kind of data set: Cytotoxicity assay (TOX8 kit). It counts as cell-based. The note with it: Mus musculus, Fibroblast; 3T3 fibroblasts, 48 h treatment; concentration in medium lethal for 50% of living cells. The method, then: (§1) The TOX8 (Sigma Aldrich) Kit was used to determine cytotoxicity retinoic acid, 3,3-dimethyl-2-oxobutyl ester (MDI 101) on 3T3 swiss albino mouse fibroblasts. The 3T3 were cultivated in DMEM medium (Capricorn) including 10% FBS, 1% Penicillin/Streptomycin and 100 nM sodium selenite at 37° C. and 5% CO2. For the cytotoxicity experiment, 3T3 were seeded into 96-well microtiter plate. After 24 hours incubation and a confluence of 30 to 40% the cells were treated with MDI 101 in four different concentrations for 48 h. Test substance was pre-diluted in DMSO, further dilutions were performed in equal medium with 5% FBS. After 48 h a microscopic estimation was carried out and the cells were incubated with TOX8-Kit for two hours at 37° C. and 5% CO2. The absorbance of a converted dye was measured by spectrophotometry at a wavelength of 600 nm. Bioreduction of the dye reduces the amount of its oxidized form (blue) and concomitantly increases the fluorescent intermediate (red), wherein the mechanism and applicability of the test is independent of the cell type. Cell viability was analyzed relative to the solvent-control. The inhibitory concentrations for 50% viability (IC50) and 80% (IC20) were calculated.
(§2) The specific concentration of MDI 101 in the cell culture medium, which is lethal for 20% (IC20) and for 50% (IC50) of living cells was determined: […]

Data set [6] can be described thus: Cytotoxicity assay (TOX8 kit). Format: cell-based, mouse. The note with it: mouse, 3T3 swiss albino mouse fibroblasts; 3T3 fibroblasts, 48 h treatment; concentration in medium lethal for 20% of living cells (80% viability). The method, then: as §1, §2

Take `CC1=C(/C=C/C(C)=C/C=C/C(C)=C/CO)C(C)(C)CCC1` [All-trans Retinol, reference compound]: in data set [1], the “Thickness (whole)” value was found to be 150 μm and the “Thickness (without stratum corneum)” value was determined as 85 μm.
By IC50 is commonly meant the point on the concentration scale where inhibition reaches its midpoint. A higher IC50 goes with lower potency. Broadly, the IC20 is the point of the concentration-response curve where the effect stands at 20%. As for `CC1=C(/C=C/C(C)=C/C=C/C(C)=C/C(=O)OCC(=O)C(C)(C)C)C(C)(C)CCC1` [MDI 101, retinoic acid, 3,3-dimethyl-2-oxobutyl ester], the Mean inhibition in data set [2] (2 μM) is reported as 8.8%; in data set [2] (25 μM), 17.7%; in data set [2] (50 μM), 27.3%; in data set [2] (250 μM) it was 83.3%; in data set [2] (500 μM), 96.4%. For the same molecule, in data set [1] (compared with all-trans Retinol in the same concentration), the “Effect on the thickness of the epidermis (in words)” value is “better than the effect of all-trans Retinol”. The “Thickness (whole)” value in data set [1] was found to be 157 μm. Moreover, the “Thickness (without stratum corneum)” value in data set [1] is listed as 112.5 μm. The “Mean proliferation compared to control (100%)” value with cells (proliferation) is listed as 125%. The values for the ROS mean value in data set [3] (0.002 μM) and in data set [3] (0.02 μM) were 75% and 23%, respectively. Further, the ROS reduction in data set [3] (0.002 μM) is 25%; in data set [3] (0.02 μM), 77.5%. Besides, in data set [3] (concentrations which should have no cytotoxic effect), the “Anti-oxidative effect (in words)” value is on record as “anti-oxidative effect”. Also, the “Solubility after pre-solving in diisopropyl adipate” value in data set [4] (pre-solved in diisopropyl adipate, recrystallization could be avoided) is on record as “strongly improved the solubility”. In data set [4] (sole powder), the “Solubility in cosmetic or pharmaceutical compositions (e.g. emulsions)” value is reported as “poor solubility”. This molecule had an IC50 in data set [5] of 263 µM. Moreover, in data set [6], the 20% effect level (IC20 at 48 h) was put at 171 µM.
